Results published in ChEMBL document CHEMBL1201862, “PubChem BioAssay data set” (2004).
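Assay format: 96-well plates, 48-hour exposure. GI50 = concentration required for 50% inhibition of growth.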 Active and inactive are the calls of the source. Rule as the data show it: active = GI50 up to about 1.1 µM and inactive = higher.

Key:
Test in all cases: NCI-60 cell line screen, 48 h
A549 = test system: A549
CCRF-CEM = test system: CCRF-CEM
EKVX = test system: EKVX
HCC 2998 = test system: HCC 2998
HOP-62 = test system: HOP-62
M14 = test system: M14
Malme-3M = test system: Malme-3M
NCI-H23 = test system: NCI-H23
NCI-H522 = test system: NCI-H522
SF-268 = test system: SF-268
SF-295 = test system: SF-295
SK-MEL-28 = test system: SK-MEL-28
SK-MEL-2 = test system: SK-MEL-2
SK-OV-3 = test system: SK-OV-3
SR = test system: SR
SW-620 = test system: SW-620
UO-31 = test system: UO-31
OVCAR-3 = test system: OVCAR-3

Measured: GI50

N/N=c1\c2ccccc2c2ccc3c4ccccc4/c(=N\N)c3c12
inactive: A549 > 100 µM | CCRF-CEM > 100 µM | EKVX > 100 µM | HCC 2998 > 100 µM | HOP-62 > 100 µM | M14 > 100 µM | Malme-3M > 100 µM | NCI-H23 > 100 µM | NCI-H522 > 100 µM | SF-268 > 100 µM | SF-295 > 100 µM | SK-MEL-28 > 100 µM | SK-MEL-2 > 100 µM | SK-OV-3 > 100 µM | SR 25.7 µM | SW-620 > 100 µM | UO-31 > 100 µM

COc1ccc(C2C(Cl)C(=O)N2NC(=O)c2ccc(NC(C)=O)cc2)cc1OC (centres undefined)
inactive: A549 > 100 µM | CCRF-CEM > 100 µM | HCC 2998 > 100 µM | HOP-62 > 100 µM | Malme-3M > 100 µM | NCI-H23 > 100 µM | NCI-H522 > 100 µM | OVCAR-3 > 100 µM | SF-268 > 100 µM | SF-295 > 100 µM | SK-MEL-28 > 100 µM | SK-MEL-2 > 100 µM | SK-OV-3 > 100 µM | SR > 100 µM | SW-620 > 100 µM | UO-31 > 100 µM

COC(=O)CCC(=O)CC(=O)C1=NS(=O)(=O)c2nc(S(N)(=O)=O)c(Cl)cc2N1
inactive: A549 > 100 µM | CCRF-CEM 45 µM | EKVX > 100 µM | HCC 2998 > 100 µM | HOP-62 > 100 µM | M14 > 100 µM | Malme-3M > 100 µM | NCI-H23 > 100 µM | NCI-H522 64.3 µM | OVCAR-3 > 100 µM | SF-268 > 100 µM | SF-295 > 100 µM | SK-MEL-28 > 100 µM | SK-MEL-2 > 100 µM | SK-OV-3 > 100 µM | SR > 100 µM | UO-31 > 100 µM

O=c1n(Cc2ccccc2)c2ccccc2n1CC1CS1 (centres undefined)
inactive: A549 > 100 µM | CCRF-CEM > 100 µM | EKVX > 100 µM | HCC 2998 > 100 µM | HOP-62 > 100 µM | M14 > 100 µM | Malme-3M > 100 µM | NCI-H522 > 100 µM | OVCAR-3 > 100 µM | SF-268 > 100 µM | SF-295 > 100 µM | SK-MEL-28 > 100 µM | SK-MEL-2 > 100 µM | SK-OV-3 > 100 µM | SR > 100 µM | SW-620 > 100 µM | UO-31 > 100 µM

CC(C)(C)c1cc(Cc2ccc(S(C)(=O)=O)cc2)c(O)c(C(C)(C)C)c1
inactive: A549 11.7 µM | CCRF-CEM 12.3 µM | EKVX 15.1 µM | HCC 2998 16.2 µM | HOP-62 16.2 µM | M14 15.4 µM | Malme-3M 18.1 µM | NCI-H23 16.8 µM | NCI-H522 12.1 µM | SF-268 13.2 µM | SF-295 13.2 µM | SK-MEL-28 18.2 µM | SK-MEL-2 16.7 µM | SK-OV-3 21.7 µM | SR 13.2 µM | SW-620 17.1 µM | UO-31 16.1 µM

CC(=O)OCc1nnn2c1C(OC(C)=O)CC2 (centres undefined)
inactive: A549 > 100 µM | EKVX > 100 µM | HCC 2998 > 100 µM | M14 > 100 µM | Malme-3M > 100 µM | NCI-H23 > 100 µM | NCI-H522 > 100 µM | OVCAR-3 > 100 µM | SF-295 > 100 µM | SK-MEL-28 > 100 µM | SK-MEL-2 > 100 µM | SK-OV-3 > 100 µM | SR > 100 µM | SW-620 > 100 µM | UO-31 > 100 µM
